A short description of series [1]: Feeding of calcium versus sodium KIC to ruminants. The series is classed as in vivo, ruminants such as cattle and sheep.
The nature of series [2]: Water solubility of KIC salts. The class given is physicochemical. To be noted: vs ammonium and alkali metal salts.
The next series has as its system plasma cortisol. The series can be described thus: Plasma cortisol in pigs after test meals. The class given is in vivo. The procedure: To determine if KIC could acutely alter cortisol concentrations, young pigs were fed meals supplemented with leucine or KIC and plasma cortisol was measured.
In experiment 1, sixteen female pigs weighing 20-30 kg were used. Seven days before study, catheters were surgically placed in the right atria for blood sampling. Animals were housed in individual cages during the recovery period and had free access to water. Preceding the experiment, animals were fed twice daily a basal diet (2% of body weight per feeding). The basal diet consisted of a corn-soybean mix, adequate in all minerals and vitamins and containing approximately 14% crude protein. Test meals were formulated by additions to a basal diet. Five animals received the basal diet (control); five animals received the leucine meal, which had 2% leucine added to the basal diet; and six animals received the KIC diet, which had 2% KIC (sodium salt equivalent to 1.7% free acid) added to the basel diet. Studies were begun between 0800 and 0900 h after a 24-hr fast. Basal blood samples were taken at -20, -10 and -5 min. Animals were then offered 100 g of their respective test meal (time 0). Pigs were included in the study only if they consumed the entire meal in the first 20 min. […] Plasma was separated, Trasylol (FBA Pharmaceuticals, New York, NY) added (50 ul/ml), and plasma stored at -70 C. until analyzed.
(§1) Cortisol was measured by coated tube kits (Gammacoat, Travenol-Genetech Diagnostics, Cambridge, MA). Leucine and KIC were measured by high pressure liquid chromatography. Crystalline leucine was obtained from Sigma Chemical (St. Louis, MO) and KIC-sodium was obtained from SOBAC (Paris, France). Statistical analysis of the individual pig responses was conducted on mean plasma concentrations before the meal (-20 to 0 min) and after the meal (120 to 240 min). When the overall treatment F-value was significant, differences between individual treatments were determined using the pooled SEM and a T-test.

Details of series [3]: species or system pigs. To be noted: pig, in vivo.
Text: In experiment 1, sixteen female pigs weighing 20-30 kg were used. Seven days before study, catheters were surgically placed in the right atria for blood sampling. Animals were housed in individual cages during the recovery period and had free access to water. Preceding the experiment, animals were fed twice daily a basal diet (2% of body weight per feeding). The basal diet consisted of a corn-soybean mix, adequate in all minerals and vitamins and containing approximately 14% crude protein. Test meals were formulated by additions to a basal diet. Five animals received the basal diet (control); five animals received the leucine meal, which had 2% leucine added to the basal diet; and six animals received the KIC diet, which had 2% KIC (sodium salt equivalent to 1.7% free acid) added to the basel diet. Studies were begun between 0800 and 0900 h after a 24-hr fast. Basal blood samples were taken at -20, -10 and -5 min. Animals were then offered 100 g of their respective test meal (time 0). Pigs were included in the study only if they consumed the entire meal in the first 20 min. Blood was sampled every 30 min from 120 to 240 min. Plasma was separated, Trasylol (FBA Pharmaceuticals, New York, NY) added (50 ul/ml), and plasma stored at -70 C. until analyzed.
as §1

For the compound `CC(C)CC(=O)C(=O)O` [Ca-KIC], in series [1], the “effectiveness relative to sodium salt” value is reported as “generally comparably effective with the sodium salt”. The water solubility result in series [2] is on record as “less water-soluble”.
Consider `CC(C)C[C@H](N)C(=O)O` [leucine, reference compound], for which, in the series with plasma cortisol (2% in meal, control -0.09), the “Plasma cortisol, Change” value is -0.48 µg/dL. Besides, in the series with plasma cortisol (2% in meal, pre: leucine 2.8, KIC 4.7, pooled SEM 0.49), the “Plasma cortisol, Post” value was 2.4 µg/dL. Besides, in the series on plasma cortisol (2% leucine in meal, nonsignificant), the “change in plasma cortisol” value is -14%. Moreover, in series [3], the “Plasma KIC, Change” value amounted to 66 µM; the “Plasma leucine, Change” value is 518 µM; the “increase of plasma leucine concentration” value is 4 fold. For the same compound, in series [3] (240 min), the “Plasma KIC, Post” value was determined as 90 µM and the “Plasma leucine, Post” value was determined as 664 µM.

For the origin of these results see US4835185A, “Immunomodulator for improving commercial performance of domestic animals” (Iowa State University Research Foundation, Inc., priority 1987, dated 1989).
